For assay [1], the system named is rats following Closed Head Injury (CHI). In words: Rat model of closed head injury (cerebral edema, NSS). The format is in vivo. To be noted: for Neurological score 1hr / ΔNSS 24hr / Neurological score 24hr / Water content Left / Water content Right: rats, CHI; for Neurological score 1hr: 1 hr after injury; for Neurological score 24hr: 24 hr after injury; for Water content Left / Water content Right: doses of 5-10 mg/kg. On the procedure: The cerebroprotective effect of PRS-211 compounds was assessed in a model of head trauma (HT) in rats. Injury was induced in anesthetized rats by a weight-drop device followed by a recovery period of up to 48 hours. This type of trauma produces brain edema (i.e. increase in water content, decrease in specific gravity in the brain), breakdown of the blood brain barrier (BBB) and clinical dysfunction. The clinical status of the rats was evaluated 1, 24 and 48 hours after injury along with measuring the extent of cerebral edema. The neurological deficit, assessed by a set of criteria termed the Neurological Severity Score (NSS), is maximal at 1 hour after the initiation of head trauma. The NSS slowly decreases over time from the initiation of HT, with the gradual spontaneous recovery of the rats.
The model was described in detail by Shapira et al., Crit. Care Med. 16:258-265, 1988. Rats were subjected to head trauma (HT) by a weight-drop device and surviving rats were followed up after one week. During that period they had free access to food and water, and were kept 2-3 rats to a cage. At any predesignated time (15 min, 1, 4, 24, 48 hrs, etc.) rats were sacrificed. Their brains were then rapidly removed and cortical tissue taken to determine water content, ions and the metabolites of interest at any particular metabolic cascade studied. During the recovery period, the clinical status was evaluated by a set of criteria (NSS).
Trauma induced a significant decrease in specific gravity (SG) of brain tissue and increase in water content following head injury. Edema developed since more water accumulates in either the extracellular (vasogenic) or intracellular (cytotoxic) spaces. The methods employed to determine edema are based on linear gradient columns of bromobenzene and kerosene (for SG) and for water content on drying the tissue in a desiccated oven. Tissue pieces (20 mg each) were placed on top of the column and the SG calculated from the equilibrium position in the column, using a standard curve.
The effect of PRS-211 analogs was calculated by the percent edema formation, where 100% was taken as edema in control, non-treated rats. Thus, the reduction in the SG was calculated as follows: SG(sham)-SG(drug)/SG(sham)-SG(cont) × 100 [formula] The increase in water content was calculated as follows: [%H2O(drug-%H2 O(sham)/%H2 O(cont)-%H2 O(sham)] × 100 [formula] All results presented in the table are statistically different (p<0.05) from control, traumatized vehicle treated rats.

For a further assay, the system named is AMPA. Briefly: Radioligand binding: inhibition of AMPA binding to membranes. Also noted: species or system rat.
Another assay concerns kainic acid. Briefly: Radioligand binding: inhibition of kainic acid binding to membranes. More on the design: species or system rat.
For assay [2] the following is noted: even at doses several thousand times higher than the ED50 of HU-210; cited from earlier work.

The structures appear in SMILES notation.

As for `CCCCCCC(C)(C)c1cc(O)c2c(c1)OC(C)(C)[C@H]1CC=C(Cn3ccnc3)C[C@H]21` (single isomer, unassigned) [211,095-000], the “edema formation and BBB disruption” value in assay [1] (given 30 min before, immediately after, or 1 and 2 hours after HT) was “significantly reduces edema formation and BBB disruption”. For the same compound, in assay [1] (one dose of 5 mg/kg given 1 hour after the impact, measured 24 hours after HT), the “edema and clinical outcome” value was “effectively reduced edema and improved the clinical outcome”. Moreover, in assay [1], the “Neurological score 1hr” value turned out to be 11.9 ±0.6, the “ΔNSS 24hr” value was found to be 6.5 ±0.45, the “Neurological score 24hr” value was 5.4 ±0.5 and the “Water content Left” value was 82.89 ±0.48. In addition, the “Water content Right” value in assay [1] was 79.75 ±0.20.
With `CCCCCCC(C)(C)c1cc(O)c2c(c1)OC(C)(C)[C@H]1CC=C(CO)C[C@H]21` [211,007-000 HU-211, 1,1 dimethyl heptyl-(3 S,4S)-7-hydroxy-Δ^6-tetrahydrocannabinol, reference compound], in assay [1], the “Neurological score 1hr” value is reported as 11.7 ±0.7, the “ΔNSS 24hr” value came out at 5.5 ±0.42, the “Neurological score 24hr” value was found to be 6.3 ±0.6 and the “Water content Left” value is on record as 83.09 ±0.51. Further, the “Water content Right” value in assay [1] turned out to be 79.37 ±0.30. In addition, the “inhibition of AMPA binding” value in the assay with AMPA is listed as “unable to inhibit”. Besides, the “inhibition of kainic acid binding” value in the assay with kainic acid is listed as “unable to inhibit”. Besides, in assay [2], the “cannabimimetic activity” value was “inactive”.

The values above are taken from patent EP1785417A2, “Novel non-psychotropic cannabinoids” (priority 2000, dated 2001).
